According to patent publication US10829483B2, “Thiophene, manufacturing method thereof, and pharmaceutical application of same” (CSTONE PHARMACEUTICAL (SUZHOU) CO., LTD., priority 2016, dated 2020):

Target: URAT-1 (uric acid transporter) (Homo sapiens (Human), UniProt Q96S37)
Assay: Inhibition of 14C uric acid transport by HEK293 cell line stably transfected with the URAT-1 gene
Assay type: cell-based
Conditions: URAT-1 (HEK293) cells; 14C-labelled uric acid 50 um, 10 min at 37° C.; read-out: IC50 (inhibition against URAT-1)
Method: Determination of the IC50 value of the inhibitory activity of the compound against uric acid reabsorption by the HEK293 cell line stably transfected with the URAT-1 (uric acid transporter) gene.
URAT-1 (HEK293) cell line: the HEK293 cell line stably transfected with the URAT-1 gene
cell culture medium: DMEM culture medium added 10% fetal bovine serum (FBS), 1% sodium pyruvate and […] G418.
Uric acid solution labeled by ^14C.
1) the supernatant of cell culture was aspirated, and cells was washed with 10 mL PBS.
2) preheated trypsin was added into the cell culture flask, and the cell culture flask was rotated to make trypsin covering onto the bottom of cell culture flask equably.
3) the cells were suspended with 10-15 mL of culture medium in each T150 flask, took 0.1 mL of cell suspension and diluted it with two volumes of trypan blue solution to count the cells.
4) cells were diluted to 2.5×10^5/mL with the culture medium, and the diluted cells were added into a rat tail collagen-coated 24-well plate (800 uL/well, 2×10^5 cells/well). The plate was incubated overnight at 37° C. in a 5% CO2 incubator.
1) cells were seeded into 24-well plate, and supernatant was discarded after 16-18 h. The cells were washed twice using 600 ul HBSS buffer.
2) HBSS buffer was removed and 180 ul of HBSS buffer was added into each well again.
1) compounds were dissolved into 100% DMSO, and diluted into 6 concentration points by 3-fold dilution, or into 2 concentration points by 10-fold dilution, and the highest starting concentration was 50 mM.
2) 5 ul DMSO solution in step 1) was transferred into 120 ul of HBSS buffer to make a 25-fold dilution.
3) 10 ul diluted solution in step 2) was added into 24-well plate, and the plate was incubated for 15 min at 37° C. in a 5% CO2 incubator. The final concentration of DMSO is 0.2%. The control well contained 0.2% DMSO without compound.
^14C-labelled uric acid was diluted and added into plate, and the final concentration is 50 um. The plate was incubated for 10 min at 37° C. in a 5% CO2 incubator. After supernatant was discarded, cells were washed with HBSS buffer twice. Cells was lysed with 0.1M NaOH. And then cell lysis solution was collected into liquid scintillation tube and added with liquid scintillation solution. The signal was read by liquid scintillation counter Tri-Carb. e) data analysis URAT-1 inhibition by the treatment of the compounds was analyzed by calculating the percentage of inhibition. Non-linear fitting analysis of percent inhibition (inh %) data using GraphPad Prism software to generate the IC50 value.

URAT-1 (uric acid transporter), sequence (Q96S37 whole entry): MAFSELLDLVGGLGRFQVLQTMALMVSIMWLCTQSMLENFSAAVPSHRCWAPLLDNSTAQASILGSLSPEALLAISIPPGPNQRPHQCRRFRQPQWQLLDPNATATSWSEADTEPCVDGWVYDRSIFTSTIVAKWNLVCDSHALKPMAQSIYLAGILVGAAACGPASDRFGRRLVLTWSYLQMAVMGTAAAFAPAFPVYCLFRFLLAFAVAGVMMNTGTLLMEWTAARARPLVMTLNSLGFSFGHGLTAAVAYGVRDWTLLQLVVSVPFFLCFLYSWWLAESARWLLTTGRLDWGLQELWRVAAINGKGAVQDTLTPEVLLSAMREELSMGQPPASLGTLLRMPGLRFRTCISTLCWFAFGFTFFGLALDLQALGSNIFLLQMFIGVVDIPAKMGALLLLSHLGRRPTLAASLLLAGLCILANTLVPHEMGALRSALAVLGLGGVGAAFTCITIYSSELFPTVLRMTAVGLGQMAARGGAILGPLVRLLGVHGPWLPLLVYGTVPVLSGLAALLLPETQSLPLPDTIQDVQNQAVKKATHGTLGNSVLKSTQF

SMILES | IC50
Cc1cc(-n2cnnc2SCC(=O)O)sc1-c1ccc(C(C)(C)C)cc1 [WX098] | > 20 µM
O=C(O)CSc1nncn1-c1sc(-c2cc(F)cc(F)c2)c2c1CCCC2 [WX022] | > 20 µM
O=C(O)CSc1nncn1-c1sc(C2CC2)c2c1CCCC2 [WX002] | > 20 µM
O=C(O)CSc1nncn1-c1sc(-c2ccc(Cl)cc2)c2c1CCC2 [WX054] | > 20 µM
O=C(O)CSc1nncn1-c1sc(-c2cccc(F)c2)c2c1CCCC2 [WX020] | > 20 µM
Cc1cc(-n2c(Br)nnc2SCC(=O)O)sc1-c1ccc(F)cc1 [WX082] | > 20 µM
COc1ccc(-c2sc(-n3c(Br)nnc3SC(C)(C)C(=O)O)cc2Cl)cc1 [WX071] | 2 to 20 µM
O=C(O)C1(Sc2nnc(Br)n2-c2cc(Cl)c(C3CC3)s2)CCC1 [WX068] | 2 to 20 µM
Cc1cc(-n2c(Br)nnc2SCC(=O)O)sc1-c1ccc(C(F)(F)F)cc1 [WX084] | > 20 µM
CC(C)(Sc1nnc(Br)n1-c1sc(C2CC2)c2c1CCC2)C(=O)NO [WX102] | 2 to 20 µM
COc1ccc(-c2sc(-n3c(Br)nnc3SCC(=O)O)c3c2CCC3)cc1 [WX043] | > 20 µM
CC(Sc1nnc(Br)n1-c1sc(-c2ccc(Cl)c(Cl)c2)c2c1CCCC2)C(=O)O (centres unmarked) [WX018] | 2 to 20 µM
O=C(O)CSc1nnc(Br)n1-c1sc(C2CC2)c2c1CCC2 [WX058] | > 20 µM

Continued, values first:

IC50 | SMILES
< 2 µM | Cc1cc(-n2c(Br)nnc2SC(C)C(=O)O)sc1C1CC1 (centres unmarked) [WX094]
2 to 20 µM | Cc1cc(-n2c(Br)nnc2SC(C)C(=O)O)sc1-c1ccc(Cl)cc1 (centres unmarked) [WX086]
< 2 µM | CC(C)(Sc1nnc(Br)n1-c1sc(-c2ccccc2)c2c1CCCC2)C(=O)O [WX005]
2 to 20 µM | O=C(O)CSc1nnc(Br)n1-c1sc(-c2ccccc2)c2c1CCCC2 [WX003]
< 2 µM | O=C(O)CSc1nnc(Br)n1-c1sc(-c2cc(F)cc(F)c2)c2c1CCCC2 [WX009]
< 2 µM | C[C@@H](Sc1nnc(Br)n1-c1sc(C2CC2)c2c1CCCC2)C(=O)O [WX031]
< 2 µM | CC(C)(Sc1nnc(Br)n1-c1sc(-c2ccc(Cl)c(Cl)c2)c2c1CCCC2)C(=O)O [WX011]
< 2 µM | CC1(C)Cc2c(C3CC3)sc(-n3c(Br)nnc3SC(C)(C)C(=O)O)c2C1 [WX065]
< 2 µM | CCC(Sc1nnc(Br)n1-c1cc(C)c(C2CC2)s1)C(=O)O (centres unmarked) [WX091]
< 2 µM | CC1(C)Cc2c(C3CC3)sc(-n3c(Br)nnc3SC3(C(=O)O)CCC3)c2C1 [WX066]
